Experimental data reported in patent publication US6521644B1, “Compositions for promoting growth” (Ferring BV, priority 1999, dated 2003).

System: GH surge induced by GHRH
Experiment: Effect on circulating growth hormone: GH surge induced by i.v. GHRH in rats, plasma GH by RIA
Type: in vivo, male Sprague-Dawley rats
Description: Experiments were conducted in male Sprague-Dawley rats (200-220 g) obtained from lffa Credo (L'Arbresle, France), fed with standard laboratory chow ad libitum and kept on a 12 h light-dark in a temperature- and humidity-controlled room.
Rats were weighed and anesthetized with Narcorene. The ventral side of the throat was shaved and an incision was made down the center of the throat. The right jugular vein was exposed and cannulated using a polythene tubing (OD 1.0 mm) connected to a medical grade silicone tubing (OD 0.94 mm) (silicone side in the jugular vein). The tubing was secured and the polythene side was externalized through an incision made on the dorsal side of the neck. The catheter was rinsed with 300 μL of a Ringer solution containing 0.1% heparin. Rats were allowed to recover for at least 24 hours in individual cages with food and water available ad libitum.
The compound of Example 1B (3 mg/kg, i.v.) or its vehicle was injected 15 minutes before an injection of GHRH (0.1 μg/kg, i.v.). Blood samples (200-250 μL) were removed immediately before inhibitor and GHRH injections, and then 5, 10, 15, 20, 30 and 60 min post-GHRH. Each blood sample was replaced with an equivalent volume of a Ringer solution containing 0.1% heparin. Plasma was extracted and stored at −20° C. until determinations of GH by RIA.

For `CC(C)(C)[C@H](N)C(=O)N1CCC[C@H]1C#N` [Example 1B, (2S)-N-((2′S)-2′-amino-3′,3′-dimethylbutanoyl)pyrrolidine-2-carbonitrile], which “Effect on the GH surge induced by the administration of GHRH” value (3 mg/kg i.v. 15 min before GHRH 0.1 μg/kg i.v., rats) is on record?
Its value is “potentiated the GH surge”.

And the “mean GH, Time 5 min” value (5 min post-GHRH 0.1 μg/kg i.v., inhibitor 3 mg/kg i.v. 15 min before GHRH, mean of 6 rats ± s.e.m.)?
The value was 483.0 ± 91.0 ng/mL.

What about the “mean GH, Time 10 min” value (10 min post-GHRH 0.1 μg/kg i.v., inhibitor 3 mg/kg i.v. 15 min before GHRH, mean of 6 rats ± s.e.m.) of the same compound?
Its value is 309.5 ± 55.40 ng/mL.

What about the “mean GH, Time 0 min” value (15 min after inhibitor 3 mg/kg i.v., immediately before GHRH 0.1 μg/kg i.v., mean of 6 rats ± s.e.m.) of the same compound?
Its value is 33.4 ± 6.9 ng/mL.

And the “mean GH, Time 15 min” value (15 min post-GHRH 0.1 μg/kg i.v., inhibitor 3 mg/kg i.v. 15 min before GHRH, mean of 6 rats ± s.e.m.)?
The value was 164.3 ± 28.3 ng/mL.

What about the “mean GH, Time 20 min” value (20 min post-GHRH 0.1 μg/kg i.v., inhibitor 3 mg/kg i.v. 15 min before GHRH, mean of 6 rats ± s.e.m.) of the same compound?
Its value is 103.1 ± 18.1 ng/mL.

What about the “mean GH, Time 30 min” value (30 min post-GHRH 0.1 μg/kg i.v., inhibitor 3 mg/kg i.v. 15 min before GHRH, mean of 6 rats ± s.e.m.) of the same compound?
The value was 52.1 ± 7.7 ng/mL.

What about the “mean GH, Time 60 min” value (60 min post-GHRH 0.1 μg/kg i.v., inhibitor 3 mg/kg i.v. 15 min before GHRH, mean of 6 rats ± s.e.m.) of the same compound?
Its value is 26.3 ± 3.3 ng/mL.

And the GH AUC (AUC column of Table 1, inhibitor 3 mg/kg i.v. 15 min before GHRH 0.1 μg/kg i.v., 6 rats, ± s.e.m.)?
Its GH AUC is 5070 ± 837 ng·min/mL.

And the “Integrated GH response” value (inhibitor-treated group, 3 mg/kg i.v. 15 min before GHRH 0.1 μg/kg i.v., p<0.05 vs vehicle (720.2±217.0))?
The value was 5072.8±837.3 ng/ml.60 min.

What about the “mean GH, Time -15 min” value (plasma GH immediately before inhibitor injection (3 mg/kg i.v.), mean of 6 rats ± s.e.m.) of the same compound?
The value was 50.5 ± 16.4 ng/mL.
